Measured values from US9822139B2, “Pharmaceutical composition containing cyclometalated N-heterocyclic carbene complexes for cancer treatment” (THE UNIVERSITY OF HONG KONG, priority 2009, dated 2017).

Tests used:
[1] = system: hepatocellular carcinoma (HepG2); experiment: MTT cytotoxicity assay, HepG2; type: cell-based, human; conditions: 72 h
Description: (§1) Example 2 describes the in vitro cytotoxicity, which is indicative of the induction of cell death and/or inhibition of cellular proliferation of cancer cells, of the cyclometalated N-heterocyclic complexes on cervical epithelioid carcinoma, hepatocellular carcinoma, leukemia, nasopharyngeal carcinoma, breast carcinoma, melanoma, and lung carcinoma.
(§2) By means of MTT assays, the cytotoxic properties of cyclometalated N-heterocyclic carbene complexes (1-25) were determined toward some established human cancer cell lines including hepatocellular carcinoma (HepG2), cervical epithelioid carcinoma (HeLa), epithelial carcinoma (KB and its camptothecin-resistant cell line KB100), non-small cell lung carcinoma (NCI-H460), leukemia (HL-60), breast carcinoma (MDA-MB-231), melanoma (B16) and nasopharyngeal carcinoma (SUNE1). […] In terms of the IC50 values, they display similar cytotoxic properties compared to the reference complexes cisplatin and camptothecin (CPT).

[2] = system: cervical epithelioid carcinoma (HeLa); experiment: MTT cytotoxicity assay, HeLa; type: cell-based, human; conditions: 72 h
Description: as §1, §2

[3] = system: epithelial carcinoma (KB); experiment: MTT cytotoxicity assay, KB; type: cell-based, human; conditions: 72 h
Description: as §1, §2

[4] = system: camptothecin-resistant cell line KB100; experiment: MTT cytotoxicity assay, KB100; type: cell-based, human; conditions: 72 h
Description: as §1, §2

[5] = system: nasopharyngeal carcinoma (SUNE1); experiment: MTT cytotoxicity assay, SUNE1; type: cell-based, human; conditions: 72 h
Description: as §1, §2

[6] = system: non-small cell lung carcinoma (NCI-H460); experiment: MTT cytotoxicity assay, NCI-H460; type: cell-based, human; conditions: 72 h
Description: as §1, §2

[7] = system: breast carcinoma (MDA-MB-231); experiment: MTT cytotoxicity assay, MDA-MB-231; type: cell-based, human; conditions: 72 h, MBA-MD-231
Description: as §1, §2

[8] = system: melanoma (B16); experiment: MTT cytotoxicity assay, B16; type: cell-based, mouse; conditions: 72 h
Description: as §1, §2

[9] = system: leukemia (HL-60); experiment: MTT cytotoxicity assay, HL-60; type: cell-based, human; conditions: 72 h
Description: as §1, §2

[10] = system: lung fibroblast cells (CCD-19Lu); experiment: MTT cytotoxicity to non-cancerous cells, CCD-19Lu; type: cell-based, human; conditions: 72 h, non-cancerous lung fibroblast cells CCD-19Lu
Description: as §2
Using lung fibroblast cells (CCD-19Lu), the cytotoxicity of the complexes to non-cancerous cells was also examined.

[11] = system: KB cells; experiment: Alkaline comet assay for DNA strand breaks; type: cell-based
[12] = system: NCI-H460 tumor; experiment: In vivo anti-cancer study, NCI-H460 tumor in nude mice; design: species or system BALB/c AnN-nu mice (nude mice); conditions: twice-a-week intraperitoneal injection; for inhibition of NCI-H460 tumor growth: 28 days
From the text: For the complex 14, four-week-old male BALB/c AnN-nu mice (nude mice) were obtained from the laboratory of PearL Materia Medica Development (Shenzhen) Ltd. Tumor cells (1×10^6) resuspended in DMEM medium were implanted by subcutaneous injection on the right flank of the mice. When tumors were approximately 50 mm^3 in size, animals were randomly separated into four groups to receive treatment of twice-a-week intraperitoneal injection of 20% PET vehicle control (20% PET=12% polyethylene glycol 400; 6% ethanol; 2% Tween 20; 80% phosphate-buffered saline), complex 14 at 1 mg/kg, complex 14 at 3 mg/kg or cyclophosphamide at 30 mg/kg. Volumes of the tumor were measured every 3 to 4 days. Tumor volume was calculated by the formula: abc/2 in which a, represents tumor length; b, the width; and c, tumor thickness, as measured with a caliper and expressed in millimeter. After 28 days, the mice were sacrificed and the tumors were taken out and their weights were measured.

[13] = system: SUNE1 cells; experiment: Apoptosis induction by flow cytometry (AV-FITC / PI); type: cell-based; conditions: 72 h
Description: Since cancer is characterized by uncontrolled cellular proliferation, there is a considerable interest in chemotherapeutic-induced apoptosis [J. C. Reed, Nature Rev. Drug Discov. 2002, 1, 111; D. W. Nicholson, Nature 2000, 407, 810]. Using fluorescein-labeled annexin V (AV-FITC) and propidium iodide (PI), the apoptosis-inducing properties of complex 1 in SUNE1 cells were examined by flow cytometry. […] The apoptosis-inducing properties of complex 1 at a lower dose (12 μM for 72 h) were also examined. […] According to the propagation profiles (formazan absorbance A550nm vs incubation time) of the treated SUNE1 cells, there is a trend of cellular growth inhibition in the presence of complex 1 at 12 μM level. Taken together with the flow cytometric results, complex 1 appears to inhibit cancer cell proliferation at 12 μM and induce apoptosis at higher doses (i.e. 60 μM).
The apoptosis-inducing properties of complex 14 in SUNE1 cells were also examined by flow cytometry. […] The apoptosis-inducing properties of complex 14 at a lower dose (1 μM for 72 h) were also examined. […] Thus, complex 14 could induce apoptosis at 10 μM.

Row | SMILES | IC50 [1] [nM] | IC50 [2] [nM] | IC50 [3] [nM] | IC50 [4] [µM] | IC50 [5] [nM] | IC50 [6] [nM] | IC50 [7] [nM] | IC50 [8] [nM] | IC50 [9] [nM] | IC50 [10] [µM] | strand breaks on chromosomal DNA (comet assay) ([11]; 1 μg/ml, 3 h, KB cells) | reversal of DNA cleavage events upon second incubation ([11]; second incubation at 55° C. for 10 min) | inhibition of NCI-H460 tumor growth ([12]; 1 mg/kg) | inhibition of NCI-H460 tumor growth ([12]; 3 mg/kg) [%] | body-weight loss ([12]; 3 or 1 mg/kg) | viable cells unstained by both AV-FITC and PI ([13]; 1 μM) [%] | SUNE1 cells in early apoptotic state ([13]; 10 μM) [%]
1 | CCCn1cc[n+](CCC)[c]1[Pt-2]12[c]3ccccc3-c3cccc([n+]31)-c1cccc[n+]12.F[P-](F)(F)(F)(F)F (stereo not shown) [Complex 13] | 1100 | 50 | 140 | 0.13 | 160 | 180 | 280 | 420 | 560 | 12 | – | – | – | – | – | – | –
2 | CCCn1cc[n+](CCC)[c]1[Pt-2]12[c]3ccccc3-c3cccc([n+]31)-c1cc3ccccc3c[n+]12.F[P-](F)(F)(F)(F)F (stereo not shown) [Complex 24] | 880 | 550 | – | – | 710 | – | – | – | – | 12 | – | – | – | – | – | – | –
3 | N.N.[Cl][Pt][Cl] [cisplatin, reference compound] | 14600 | 14900 | – | – | 2400 | – | – | – | – | > 100 | – | – | – | – | – | – | –
4 | CC(C)c1cc(C(C)C)c(-n2cc[n+](-c3c(C(C)C)cc(C(C)C)cc3C(C)C)[c]2[Au-]23[c]4ccccc4-c4cccc([n+]42)-c2cccc[c]23)c(C(C)C)c1.O=S(=O)([O-])C(F)(F)F [Complex 4] | 1900 | 2700 | 3600 | 4.5 | 5500 | 6200 | 3700 | 7700 | 1100 | 11 | – | – | – | – | – | – | –
5 | CCCCn1cc[n+](CCO)[c]1[Pt-2]12[c]3ccccc3-c3cccc([n+]31)-c1cc3ccccc3c[n+]12.F[P-](F)(F)(F)(F)F (stereo not shown) [Complex 25] | 680 | 450 | – | – | 880 | – | – | – | – | 11 | – | – | – | – | – | – | –
6 | Cc1cc(C)c(-[n+]2ccn(CCCO)[c]2[Pt-2]23[c]4ccccc4-c4cccc([n+]42)-c2cccc[n+]23)c(C)c1.F[P-](F)(F)(F)(F)F (stereo not shown) [Complex 23] | 780 | 480 | – | – | 940 | – | – | – | – | 7.5 | – | – | – | – | – | – | –
7 | Cn1cc[n+](C)[c]1[Pt-2]12[c]3ccccc3-c3cccc([n+]31)-c1cccc[n+]12.F[P-](F)(F)(F)(F)F (stereo not shown) [Complex 11] | 310 | 330 | 660 | 0.62 | 510 | 580 | 1500 | 3100 | 580 | 5.7 | – | – | – | – | – | – | –
8 | CCn1cc[n+](CC)[c]1[Pt-2]12[c]3ccccc3-c3cccc([n+]31)-c1cccc[n+]12.F[P-](F)(F)(F)(F)F (stereo not shown) [Complex 12] | 1300 | 480 | 890 | 0.77 | 320 | 570 | 1200 | 1800 | 520 | 2.1 | – | – | – | – | – | – | –
9 | COc1cccc2c1C(=O)c1c(O)c3c(c(O)c1C2=O)C[C@@](O)(C(=O)CO)C[C@@H]3O[C@H]1C[C@H](N)[C@H](O)[C@H](C)O1 [doxorubicin] | – | – | – | – | – | – | – | – | – | – | induced extensive strand breaks on chromosomal DNA | not | – | – | – | – | –
10 | CCCCn1cc[n+](CCCC)[c]1[Pt-2]12[c]3ccccc3-c3cccc([n+]31)-c1cccc[n+]12.F[P-](F)(F)(F)(F)F (stereo not shown) [Complex 14] | 770 | 50 | 40 | 0.08 | 140 | 90 | 40 | 150 | 80 | 10 | – | – | significantly less effective | 55 | no significant weight loss | ~90 | 46.4
11 | Cc1cc(C)c(-[n+]2ccn(CC(=O)c3ccccc3)[c]2[Au-]23[c]4ccccc4-c4cccc([n+]42)-c2cccc[c]23)c(C)c1.O=S(=O)([O-])C(F)(F)F [Complex 5] | 2600 | 3500 | 4400 | 4 | 3400 | 9500 | 13000 | 2100 | 1200 | 11 | – | – | – | – | – | – | –
12 | CCCCn1cc[n+](C[n+]2ccn(CCCC)[c]2[Au-]23[c]4cc5ccccc5cc4-c4cc(-c5ccc(OC)cc5)cc([n+]42)-c2cc4ccccc4c[c]23)[c]1[Au-]12[c]3cc4ccccc4cc3-c3cc(-c4ccc(OC)cc4)cc([n+]31)-c1cc3ccccc3c[c]12.O=S(=O)([O-])C(F)(F)F.O=S(=O)([O-])C(F)(F)F [Complex 9] | 4500 | 7200 | 5000 | 3.8 | 4500 | 5500 | 6200 | 9100 | 7100 | 9.9 | – | – | – | – | – | – | –
13 | CCCCn1cc[n+](C[n+]2ccn(CCCC)[c]2[Au-]23[c]4ccccc4-c4cccc([n+]42)-c2cccc[c]23)[c]1[Au-]12[c]3ccccc3-c3cccc([n+]31)-c1cccc[c]12.O=S(=O)([O-])C(F)(F)F.O=S(=O)([O-])C(F)(F)F [Complex 2] | 7900 | 7800 | 10000 | 28 | 3300 | 3000 | 4200 | 10000 | 5900 | > 100 | – | – | – | – | – | – | –
14 | COc1ccc(-c2cc3[n+]4c(c2)-c2cc5ccccc5c[c]2[Au-]4([c]2n(C)cc[n+]2C)[c]2cc4ccccc4cc2-3)cc1.O=S(=O)([O-])C(F)(F)F [Complex 8] | 1000 | 500 | 420 | 18 | 260 | 180 | 960 | 560 | 130 | 0.89 | – | – | – | – | – | – | –
15 | CCCC[n+]1ccn(Cn2cc[n+](CCCC)[c]2[Pt-2]23[c]4ccccc4-c4cccc([n+]42)-c2cccc[n+]23)[c]1[Pt-2]12[c]3ccccc3-c3cccc([n+]31)-c1cccc[n+]12.F[P-](F)(F)(F)(F)F.F[P-](F)(F)(F)(F)F (stereo not shown) [Complex 15] | 9400 | 8000 | – | – | 6400 | – | – | – | – | 40 | – | – | – | – | – | – | –
16 | CCCC[n+]1ccn(CCCn2cc[n+](CCCC)[c]2[Pt-2]23[c]4ccccc4-c4cccc([n+]42)-c2cccc[n+]23)[c]1[Pt-2]12[c]3ccccc3-c3cccc([n+]31)-c1cccc[n+]12.F[P-](F)(F)(F)(F)F.F[P-](F)(F)(F)(F)F (stereo not shown) [Complex 16] | 7100 | 3900 | – | – | 5600 | – | – | – | – | 27 | – | – | – | – | – | – | –
